Laboratory results from patent publication US12390441B2, “Immunomodulating o-het/aryl azalides” (Zoetis Services LLC, priority 2020, dated 2025).
Marks after values point to notes of the source that are not given here.

Test system: BRD pathogens, M. haemolytica and P. multocida
Test: In-vitro MIC model, BRD pathogen screening panel
Format: cell-based, Mannheimia haemolytica; Pasteurella multocida
Conditions: for MIC flag at the example number (Table E): at least one BRD strain; for MIC for at least one BRD strain (asterisk on Ex#): Table F, Formula (1-A1a) compounds

Row | Structure (SMILES) | MIC flag at the example number (Table E) | MIC for at least one BRD strain (asterisk on Ex#)
1 | CCCNC[C@]1(O)[C@H](C)O[C@@H](O[C@H]2[C@H](C)[C@@H](O[C@@H]3O[C@H](C)C[C@H](N(C)C)[C@H]3Oc3ccc(C(=O)N4CCCC4)cc3)[C@](C)(O)C[C@@H](C)CN[C@H](C)[C@@H](O)[C@](C)(O)[C@@H](CC)OC(=O)[C@@H]2C)C[C@@]1(C)OC [Example E-95] | E-95* (MIC ≤ 64 μg/mL for at least one BRD strain) | –
2 | CCCNC[C@]1(O)[C@H](C)O[C@@H](O[C@H]2[C@H](C)[C@@H](O[C@@H]3O[C@H](C)C[C@H](N(C)C)[C@H]3Oc3ccccc3OCC)[C@](C)(O)C[C@@H](C)CN[C@H](C)[C@@H](O)[C@](C)(O)[C@@H](CC)OC(=O)[C@@H]2C)C[C@@]1(C)OC [Example E-96] | E-96* (MIC ≤ 64 μg/mL for at least one BRD strain) | –
3 | CCCNC[C@]1(O)[C@H](C)O[C@@H](O[C@H]2[C@H](C)[C@@H](O[C@@H]3O[C@H](C)C[C@H](N(C)C)[C@H]3Oc3ccc(OC)cc3OC)[C@](C)(O)C[C@@H](C)CN[C@H](C)[C@@H](O)[C@](C)(O)[C@@H](CC)OC(=O)[C@@H]2C)C[C@@]1(C)OC [Example E-97] | E-97* (MIC ≤ 64 μg/mL for at least one BRD strain) | –
4 | CCCNC[C@]1(O)[C@H](C)O[C@@H](O[C@H]2[C@H](C)[C@@H](O[C@@H]3O[C@H](C)C[C@H](NC)[C@H]3Oc3ccc(OC(F)(F)F)cc3)[C@](C)(O)C[C@@H](C)CN[C@H](C)[C@@H](O)[C@](C)(O)[C@@H](CC)OC(=O)[C@@H]2C)C[C@@]1(C)OC [Example E-101] | E-101* (MIC ≤ 64 μg/mL for at least one BRD strain) | –
5 | CCCNC[C@]1(O)[C@H](C)O[C@@H](O[C@H]2[C@H](C)[C@@H](O[C@@H]3O[C@H](C)C[C@H](NC)[C@H]3Oc3ccc(C)cc3)[C@](C)(O)C[C@@H](C)CN[C@H](C)[C@@H](O)[C@](C)(O)[C@@H](CC)OC(=O)[C@@H]2C)C[C@@]1(C)OC [Example E-103] | E-103* (MIC ≤ 64 μg/mL for at least one BRD strain) | –
6 | CCCNC[C@]1(O)[C@H](C)O[C@@H](O[C@H]2[C@H](C)[C@@H](O[C@@H]3O[C@H](C)C[C@H](NC)[C@H]3Oc3ccc(C(F)(F)F)cc3)[C@](C)(O)C[C@@H](C)CN[C@H](C)[C@@H](O)[C@](C)(O)[C@@H](CC)OC(=O)[C@@H]2C)C[C@@]1(C)OC [Example E-104] | E-104* (MIC ≤ 64 μg/mL for at least one BRD strain) | –
7 | CCCNC[C@]1(O)[C@H](C)O[C@@H](O[C@H]2[C@H](C)[C@@H](O[C@@H]3O[C@H](C)C[C@H](N(C)C)[C@H]3Oc3ccccc3C#N)[C@](C)(O)C[C@@H](C)CN[C@H](C)[C@@H](O)[C@](C)(O)[C@@H](CC)OC(=O)[C@@H]2C)C[C@@]1(C)OC [Example E-105] | E-105* (MIC ≤ 64 μg/mL for at least one BRD strain) | –
8 | CCCNC[C@]1(O)[C@H](C)O[C@@H](O[C@H]2[C@H](C)[C@@H](O[C@@H]3O[C@H](C)C[C@H](NC)[C@H]3Oc3ccc(Cl)cc3)[C@](C)(O)C[C@@H](C)CN[C@H](C)[C@@H](O)[C@](C)(O)[C@@H](CC)OC(=O)[C@@H]2C)C[C@@]1(C)OC [Example E-106] | E-106* (MIC ≤ 64 μg/mL for at least one BRD strain) | –
9 | CC[C@H]1OC(=O)[C@H](C)[C@@H](O[C@H]2C[C@@](C)(OC)[C@](O)(CNCCN(C)C)[C@H](C)O2)[C@H](C)[C@@H](O[C@@H]2O[C@H](C)C[C@H](N(C)C)[C@H]2Oc2ccc(OC)cc2)[C@](C)(O)C[C@@H](C)CN[C@H](C)[C@@H](O)[C@]1(C)O [Example E-107] | E-107* (MIC ≤ 64 μg/mL for at least one BRD strain) | –
10 | CCCN(C[C@]1(O)[C@H](C)O[C@@H](O[C@H]2[C@H](C)[C@@H](O[C@@H]3O[C@H](C)C[C@H](NC)[C@H]3Oc3ncccn3)[C@](C)(O)C[C@@H](C)CN[C@H](C)[C@@H](O)[C@](C)(O)[C@@H](CC)OC(=O)[C@@H]2C)C[C@@]1(C)OC)c1ncccn1 [Example E-118] | E-118* (MIC ≤ 64 μg/mL for at least one BRD strain) | –
11 | CCCN(C[C@]1(O)[C@H](C)O[C@@H](O[C@H]2[C@H](C)[C@@H](O[C@@H]3O[C@H](C)C[C@H](NC)[C@H]3Oc3ncc(Cl)cn3)[C@](C)(O)C[C@@H](C)CN[C@H](C)[C@@H](O)[C@](C)(O)[C@@H](CC)OC(=O)[C@@H]2C)C[C@@]1(C)OC)c1ncc(Cl)cn1 [Example E-119] | E-119* (MIC ≤ 64 μg/mL for at least one BRD strain) | –
12 | CCCN(C[C@]1(O)[C@H](C)O[C@@H](O[C@H]2[C@H](C)[C@@H](O[C@@H]3O[C@H](C)C[C@H](NC)[C@H]3Oc3ncc(C#N)cn3)[C@](C)(O)C[C@@H](C)CN[C@H](C)[C@@H](O)[C@](C)(O)[C@@H](CC)OC(=O)[C@@H]2C)C[C@@]1(C)OC)c1ncc(C#N)cn1 [Example E-122] | E-122* (MIC ≤ 64 μg/mL for at least one BRD strain) | –
13 | CCCNC[C@]1(O)[C@H](C)O[C@@H](O[C@H]2[C@H](C)[C@@H](O[C@@H]3O[C@H](C)C[C@H](N(C)C)[C@H]3Oc3cccc(C)c3)[C@](C)(O)C[C@@H](C)CN[C@H](C)[C@@H](O)[C@](C)(O)[C@@H](CC)OC(=O)[C@@H]2C)C[C@@]1(C)OC [Example E-123] | E-123* (MIC ≤ 64 μg/mL for at least one BRD strain) | –
14 | CCCNC[C@]1(O)[C@H](C)O[C@@H](O[C@H]2[C@H](C)[C@@H](O[C@@H]3O[C@H](C)C[C@H](N(C)C)[C@H]3Oc3ccc(OC)nc3)[C@](C)(O)C[C@@H](C)CN[C@H](C)[C@@H](O)[C@](C)(O)[C@@H](CC)OC(=O)[C@@H]2C)C[C@@]1(C)OC [Example E-133] | E-133* (MIC ≤ 64 μg/mL for at least one BRD strain) | –
15 | CC[C@H]1OC(=O)[C@H](C)[C@@H](O[C@H]2C[C@@](C)(OC)[C@](O)(CNc3ccccc3)[C@H](C)O2)[C@H](C)[C@@H](O[C@@H]2O[C@H](C)C[C@H](NC)[C@H]2Oc2ccccc2)[C@](C)(O)C[C@@H](C)CN[C@H](C)[C@@H](O)[C@]1(C)O [Example E-137] | E-137* (MIC ≤ 64 μg/mL for at least one BRD strain) | –
16 | CC[C@H]1OC(=O)[C@H](C)[C@@H](O[C@H]2C[C@@](C)(OC)[C@](O)(CNC3CC3)[C@H](C)O2)[C@H](C)[C@@H](O[C@@H]2O[C@H](C)C[C@H](N(C)C)[C@H]2Oc2ccccc2)[C@](C)(O)C[C@@H](C)CN[C@H](C)[C@@H](O)[C@]1(C)O [Example E-140] | E-140* (MIC ≤ 64 μg/mL for at least one BRD strain) | –
17 | CCCNC[C@]1(O)[C@H](C)O[C@@H](O[C@H]2[C@H](C)[C@@H](O[C@@H]3O[C@H](C)C[C@H](N(C)C(=O)N(C)c4ccccc4)[C@H]3Oc3ccccc3Cl)[C@](C)(O)C[C@@H](C)CN[C@H](C)[C@@H](O)[C@](C)(O)[C@@H](CC)OC(=O)[C@@H]2C)C[C@@]1(C)OC [Example F-10] | – | F-10* (MIC ≤ 64 μg/mL for at least one BRD strain)
18 | CCCNC[C@]1(O)[C@H](C)O[C@@H](O[C@H]2[C@H](C)[C@@H](O[C@@H]3O[C@H](C)C[C@H](N(C)C(=O)N(C)CCC)[C@H]3Oc3ccccc3)[C@](C)(O)C[C@@H](C)CN[C@H](C)[C@@H](O)[C@](C)(O)[C@@H](CC)OC(=O)[C@@H]2C)C[C@@]1(C)OC [Example F-11] | – | F-11* (MIC ≤ 64 μg/mL for at least one BRD strain)
